The subject of data set [1] is carbon tetrachloride-induced liver damage. The note with it: administered 2 weeks, CCl4 continued to 3 and 4 weeks; FIGS. 6 and 7. The method, then:
(§1) 1. For Group 1 (control group), 0.75 ml/kg of carbon tetrachloride was injected each time into the peritoneal cavity 2 times a week (Mondays & Fridays) for 4 weeks, and no additional compounds was administered any more.

The test system of data set [2] is ICR rats. The data set is described as follows: Acute toxicity test. Format: in vivo. The settings on record: for Fatality rate / No. of dead rats: after 1 week. The text has this: Acute toxicity was investigated upon administering the PLGA-BDD nanoparticles of the present invention prepared via Example 2.
For data set [3] the following is noted: taken as a form of tablet; cited from earlier work.
Data set [4] deals with carbon tetrachloride-induced liver damage. Nature of the data set: Treatment effects on carbon tetrachloride-induced liver damage. Format: in vivo, Sprague Dawley rats. The note with it: blood serum after 4 weeks; for Relative concentration of ALT against the control group: 25 mg/kg oral; for ALT* (average ALT concentration ± deviation): 25 mg/kg oral once a day, 6 times a week, CCl4 0.75 ml/kg i.p. 2 times a week. The method, then:
6-week old 20 male Sprague Dawley rats (Orient Bio, Korea) were weighed and distributed to 4 groups 5 to each group to be equal in average weight and degree of dispersion. Under the condition of 23±2′C of temperature and 55±5% of relative humidity in an animal facility, 0.75 ml/kg of 50% solution (v/v) (Sigma-Aldrich, USA) of liver toxic carbon tetrachloride (CCl4) mixed with corn oil was injected each time into the peritoneal cavity 2 times a week (Mondays & Fridays) for 4 weeks.
as §1
2. For Group 2, in addition to the 0.75 ml/kg of carbon tetrachloride injection each time into the peritoneal cavity 2 times a week (Mondays & Fridays) for 4 weeks, BDD equivalent to 25 mg per 1 kg of body weight of each rat, which was suspended in 1% (w/v) of CMC (carboxylmethyl cellulose sodium salt, Sigma-Aldrich, USA) solution were orally administered each time once a day, 6 times a week for 4 weeks.
3. For Group 3, in addition to the 0.75 ml/kg of carbon tetrachloride injection each time into the peritoneal cavity 2 times a week (Mondays & Fridays) for 4 weeks, BDD-containing polymeric nanoparticles of the present invention prepared via Example 2 equivalent to 25 mg per 1 kg of body weight of each rat, which were suspended in 1% (w/v) of CMC (Carboxylmethyl cellulose sodium salt, Sigma-Aldrich, USA) solution were orally administered each time once a day, 6 times a week for 4 weeks.
4. For Group 4 (no treatment group), no carbon tetrachloride and compounds were administered.
In detail, after 4 weeks, each animal was anesthetized by injecting 4% of 4 ml-chloral hydrate (BDH Laboratory Supplies, U.K.) Into the peritoneal cavity, and blood was taken out from the heart and left at a room temperature for an hour. After then, blood serum was obtained by spinning down at 16000 rpm for 20 minutes, and ALT and AST concentrations were measured by an automatic blood biochemistry analyzer (HITACHI 7080, HITACHI, Japan) using an ALT and AST test reagents (TA-Test Wako; WAKO Pure Chemical, Japan).

We go through 1 compound from patent US8758822B2, “Method for manufacturing uniform size polymeric nanoparticles containing poorly soluble drugs” (Korea Research Institute of Bioscience and Biotechnology, priority 2008, dated 2014).

A word on the LD50: it is the dose at which mortality reaches 50%.

Structures are written as SMILES.

For `COC(=O)c1cc(OC)c2c(c1-c1c(C(=O)OC)cc(OC)c3c1OCO3)OCO2` [BDD, biphenyl-dimethyl-dicarboxylate], the “inhibiting effect on increase of carbon tetrachloride-induced ALT and AST concentration over time” value in data set [1] is recorded as “rebounded after 4 weeks”. In addition, the Fatality rate in data set [2] (0.005 g per kg oral), in data set [2] (0.1 g per kg oral), in data set [2] (0.25 g per kg oral), in data set [2] (0.5 g per kg oral) and in data set [2] (1 g per kg oral) was 0% in each case. For the same compound, the “No. of dead rats” value in data set [2] (0.005 g per kg oral), in data set [2] (0.1 g per kg oral), in data set [2] (0.25 g per kg oral), in data set [2] (0.5 g per kg oral) and in data set [2] (1 g per kg oral) was 0 throughout. For the same compound, the median lethal dose (LD50) in data set [2] (oral) is over 2000 mg/kg. Also, the bioavailability in data set [3] was 20-30%. Moreover, the “Relative concentration of ALT against the control group” value in data set [4] (Table 2) was determined as 42%; in data set [4] (Table 3), 52.9%. In addition, the “ALT* (average ALT concentration ± deviation)” value was 229.6 ± 99.7 SF IU/l in data set [4] (Table 2) and 479.7 ± 144.8 SF IU/l in data set [4] (Table 3).
